The values below come from PMC12085588 (Scientific Reports, 2025).

Like-named read-outs stand apart in the source and are kept apart here.

Data set [1] in a line: Cytotoxicity assay. The class given is cell-based, human. To be noted: human, A549 cells.
The test system of data set [2] is A549 cells. In words: Cytotoxicity assay. The class given is cell-based, human.
Data set [3] relates to IAV H1N1 strain A/Puerto Rico/8/1934. As to the kind of experiment: microbe, parasite or virus in culture. The class given is cell-based, influenza A virus. To be noted: for IC50: Influenza A virus, H1N1, A549, 48 h.
Data set [4] has the same test system. The class given is cell-based, influenza A virus.
In data set [5] the test system is host antiviral genes (IFITM-1, ISG15, ISG20, Mx-A, OAS-1, RSAD2, SHFL) in A549 cells. The class given is cell-based, human.
For data set [6], the system named is IAV H1N1 strain A/Puerto Rico/8/1934. In words: microbe, parasite or virus in culture. The format is cell-based, influenza A virus.
Data set [7] shares this test system. As to the kind of experiment: microbe, parasite or virus in culture. The class given is cell-based, influenza A virus. The source holds these as a separate data set.
Data set [8] shares this test system. As to the kind of experiment: microbe, parasite or virus in culture. The class given is cell-based, influenza A virus. This is another data set of the same source.
Data set [9] has the same test system. As to the kind of experiment: microbe, parasite or virus in culture. The format is cell-based, influenza A virus. The source holds these as a separate data set.
The test system of data set [10] is dengue virus serotype 2 (DENV-2). To be noted: cells treated 2 h before viral infection (-2 h); ref 15 (Oo et al.); cited from earlier work.
[11] abbreviates: after 48 h of incubation at concentrations of up to 1000 μM.

As usually defined, the CC50 is the concentration giving 50% cytotoxicity. Higher therefore signals lower toxicity to the cells. The IC50 is the point on the concentration scale where inhibition reaches its midpoint. As for `O=c1cc(-c2ccc(O)c(O)c2)oc2c([C@@H]3O[C@H](CO)[C@@H](O)[C@H](O)[C@H]3O)c(O)cc(O)c12` [Orientin], in data set [1], half-maximal cytotoxicity (CC50 at 3 days) was put at 1043 ± 3.41 µM. Further, the “cytotoxicity on A549 cells” value in [2] (setting [11]) was “no significant cytotoxicity”. This compound yielded a half-maximal inhibitory concentration (IC50) in data set [3] of 8.98 ± 2.03 µM.
In the same order, the values of `O=c1c(O)c(-c2ccc(O)c(O)c2)oc2cc(O)ccc12` [Fisetin] are 1190 ± 3.52 µM, “no significant cytotoxicity” and 143 ± 6.19 µM.
Consider `COc1ccc(-c2cc(=O)c3c(O)cc(O[C@@H]4O[C@H](CO[C@@H]5O[C@@H](C)[C@H](O)[C@@H](O)[C@H]5O)[C@@H](O)[C@H](O)[C@H]4O)cc3o2)cc1O` [Diosmin, diosmetin 7-O-rutinoside], for which the CC50 at 3 days in data set [1] is 11300 µM. Moreover, the “cytotoxicity on A549 cells” value in data set [2] (after 48 h of incubation at concentrations of up to 5000 μM) is reported as “no significant cytotoxicity”. In data set [3], the “viral RNA levels” value is given as “less than 20%” and the IC50 worked out at 2.91 ± 3.22 µM. Besides, in [4], the “percentage of viral RNA copy numbers vs virus control” value was “significant reduction”. Also, in data set [5], the “fold change of ISG15 expression (relative quantification)” value was found to be 6.774, the “fold change of Mx-A expression (relative quantification)” value amounted to 2.163, the “fold change of OAS-1 expression (relative quantification)” value worked out at 2.035 and the “fold change of SHFL expression (relative quantification)” value stood at 4.148. Further, the “viral RNA reduction, virucidal assay” value in data set [6] (25 μM) is on record as “exceeding 40%”. Moreover, in [6] (Influenza A virus, H1N1, A549, read-out: IC50 of diosmin, virucidal assay), the IC50 came out at 41.3 ± 4.56 µM. Moreover, the “viral RNA reduction, attachment assay” value in data set [7] (25 μM) was “exceeding 40%”. In addition, in data set [7] (Influenza A virus, H1N1, A549, read-out: IC50 of diosmin, attachment assay), the IC50 was 13.3 ± 2.37 µM. For the same compound, in data set [8] (25 μM), the “reduction of viral RNA, entry assay” value was “under 40%”. Moreover, the IC50 in [8] (Influenza A virus, H1N1, A549, read-out: IC50 of diosmin, entry assay) is 39.2 ± 0.63 µM. Moreover, the “viral RNA reduction, post-entry assay” value in [9] (25 μM) is recorded as “exceeding 40%”. Also, the concentration for half-maximal inhibition (IC50) in [9] (Influenza A virus, H1N1, A549, read-out: IC50 of diosmin, post-entry assay) came out at 12.2 ± 1.55 µM. In addition, the “suppression of DENV-2 RNA” value in [10] was “over 50%”.
